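Abbreviation: GI50, concentration required for 50% inhibition of growth. Definition used: TGI = concentration required for complete inhibition of growth.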
What was measured:
Experiment in all cases: inhibition of tumour cell growth, NCI panel, 384-well format
HT29 colon = tested on: HT29 colon
NCI-H522 lung = tested on: NCI-H522 lung
SF-295 CNS = tested on: SF-295 CNS
786-0 renal = tested on: 786-0 renal
SF-539 CNS = tested on: SF-539 CNS
RPMI-8226 leukemia = tested on: RPMI-8226 leukemia
HCT-15 colon = tested on: HCT-15 colon
MDA-MB-468 breast = tested on: MDA-MB-468 breast
HS 578T breast = tested on: HS 578T breast
IGROV1 ovarian = tested on: IGROV1 ovarian
ACHN renal = tested on: ACHN renal
NCI-H460 NSCLC = tested on: NCI-H460 NSCLC
T-47D breast = tested on: T-47D breast
SK-OV-3 ovarian = tested on: SK-OV-3 ovarian
BT-549 breast = tested on: BT-549 breast
PC-3 prostate = tested on: PC-3 prostate
MCF7 breast = tested on: MCF7 breast
SW-620 colon = tested on: SW-620 colon
NCI-H322M lung = tested on: NCI-H322M lung
MALME-3M melanoma = tested on: MALME-3M melanoma
SR leukemia = tested on: SR leukemia
OVCAR-4 ovarian = tested on: OVCAR-4 ovarian
HCC-2998 colon = tested on: HCC-2998 colon
U251 glioblastoma = tested on: U251 glioblastoma
MDA-MB-435 melanoma = tested on: MDA-MB-435 melanoma
LOX IMVI melanoma = tested on: LOX IMVI melanoma
OVCAR-8 ovarian = tested on: OVCAR-8 ovarian
NCI/ADR-RES ovarian = tested on: NCI/ADR-RES ovarian
COLO 205 colon = tested on: COLO 205 colon
TK-10 renal = tested on: TK-10 renal
NCI-H226 lung = tested on: NCI-H226 lung
SK-MEL-28 melanoma = tested on: SK-MEL-28 melanoma
A498 renal = tested on: A498 renal
K-562 leukemia = tested on: K-562 leukemia
UACC-62 melanoma = tested on: UACC-62 melanoma
DU-145 prostate = tested on: DU-145 prostate
M14 melanoma = tested on: M14 melanoma
RXF 393 renal = tested on: RXF 393 renal
MOLT-4 leukemia = tested on: MOLT-4 leukemia
EKVX NSCLC = tested on: EKVX NSCLC
CCRF-CEM leukemia = tested on: CCRF-CEM leukemia
HOP-92 NSCLC = tested on: HOP-92 NSCLC
A549 NSCLC = tested on: A549 NSCLC
KM12 colon = tested on: KM12 colon
SN12C renal = tested on: SN12C renal
UO-31 renal = tested on: UO-31 renal
HOP-62 NSCLC = tested on: HOP-62 NSCLC
SNB-19 CNS = tested on: SNB-19 CNS
CAKI-1 renal = tested on: CAKI-1 renal
SNB-75 CNS = tested on: SNB-75 CNS
SK-MEL-5 melanoma = tested on: SK-MEL-5 melanoma
NCI-H23 lung = tested on: NCI-H23 lung
HL-60(TB) leukemia = tested on: HL-60(TB) leukemia
MDA-MB-231 breast = tested on: MDA-MB-231 breast
OVCAR-5 ovarian = tested on: OVCAR-5 ovarian
UACC-257 melanoma = tested on: UACC-257 melanoma
SF-268 CNS = tested on: SF-268 CNS

## CCC[C@H](N[C@@H]1CCc2cc(F)cc(F)c2C1)C(=O)Nc1cn(C(C)(C)CNCC(C)(C)C)cn1
HT29 colon
  GI50: 11 µM
  TGI: 23.7 µM
NCI-H522 lung
  GI50: 13.2 µM
  TGI: 28.8 µM
SF-295 CNS
  GI50: 13.8 µM
  TGI: 26.9 µM
786-0 renal
  GI50: 13.4 µM
  TGI: 26.5 µM
SF-539 CNS
  GI50: 16.5 µM
  TGI: 30.3 µM
RPMI-8226 leukemia
  GI50: 0.358 µM
  TGI: 11.2 µM
HCT-15 colon
  GI50: 8.15 µM
  TGI: 21.3 µM
MDA-MB-468 breast
  TGI: 1.75 µM
HS 578T breast
  GI50: 12.3 µM
  TGI: 25.1 µM
IGROV1 ovarian
  GI50: 17.3 µM
  TGI: 44.6 µM
ACHN renal
  GI50: 15.4 µM
  TGI: 35.2 µM
NCI-H460 NSCLC
  GI50: 14.9 µM
  TGI: 28.9 µM
T-47D breast
  GI50: 2.11 µM
  TGI: 17 µM
SK-OV-3 ovarian
  GI50: 14.2 µM
  TGI: 29.5 µM
BT-549 breast
  GI50: 9.95 µM
  TGI: 22.1 µM
PC-3 prostate
  GI50: 7.53 µM
  TGI: 21.4 µM
MCF7 breast
  GI50: 5.11 µM
  TGI: 19.8 µM
SW-620 colon
  GI50: 16.2 µM
  TGI: 32.2 µM
NCI-H322M lung
  GI50: 20.8 µM
  TGI: 55.4 µM
MALME-3M melanoma
  GI50: 2.14 µM
  TGI: 12.2 µM
SR leukemia
  GI50: 4.2 µM
  TGI: 16.2 µM
OVCAR-4 ovarian
  GI50: 1.09 µM
  TGI: 35.9 µM
HCC-2998 colon
  GI50: 6.98 µM
  TGI: 19.9 µM
U251 glioblastoma
  GI50: 15.5 µM
  TGI: 29.3 µM
MDA-MB-435 melanoma
  GI50: 16.6 µM
  TGI: 35.1 µM
LOX IMVI melanoma
  GI50: 17.8 µM
  TGI: 31.9 µM
OVCAR-8 ovarian
  GI50: 16.1 µM
  TGI: 36.5 µM
NCI/ADR-RES ovarian
  GI50: 10.9 µM
  TGI: 24.3 µM
COLO 205 colon
  GI50: 13.1 µM
  TGI: 36.1 µM
TK-10 renal
  GI50: 16 µM
  TGI: 46 µM
NCI-H226 lung
  GI50: 13.8 µM
  TGI: 28.3 µM
SK-MEL-28 melanoma
  GI50: 12.7 µM
  TGI: 25.9 µM
A498 renal
  GI50: 10.5 µM
  TGI: 22.8 µM
K-562 leukemia
  GI50: 10.6 µM
  TGI: 22.8 µM
UACC-62 melanoma
  GI50: 15.7 µM
  TGI: 29.3 µM
DU-145 prostate
  GI50: 17.2 µM
  TGI: 48.8 µM
M14 melanoma
  GI50: 13.8 µM
  TGI: 27 µM
RXF 393 renal
  GI50: 10.7 µM
  TGI: 24.1 µM
MOLT-4 leukemia
  GI50: 4.04 µM
  TGI: 15.2 µM
EKVX NSCLC
  GI50: 14.5 µM
  TGI: 44.7 µM
CCRF-CEM leukemia
  GI50: 7.5 µM
  TGI: 21 µM
HOP-92 NSCLC
  GI50: 11.7 µM
  TGI: 24.1 µM
A549 NSCLC
  GI50: 13.9 µM
  TGI: 46.8 µM
KM12 colon
  GI50: 14.6 µM
  TGI: 29.8 µM
SN12C renal
  GI50: 19.4 µM
  TGI: 42.9 µM
UO-31 renal
  GI50: 14.6 µM
  TGI: 28.5 µM
HOP-62 NSCLC
  GI50: 15.6 µM
  TGI: 30.1 µM
SNB-19 CNS
  GI50: 16.8 µM
  TGI: 39.7 µM
CAKI-1 renal
  GI50: 14.4 µM
  TGI: 29.5 µM
SNB-75 CNS
  GI50: 15.8 µM
  TGI: 42.8 µM
SK-MEL-5 melanoma
  GI50: 11.2 µM
  TGI: 23.4 µM
NCI-H23 lung
  GI50: 11.9 µM
  TGI: 26 µM
HL-60(TB) leukemia
  GI50: 2.77 µM
  TGI: 14.5 µM
MDA-MB-231 breast
  GI50: 12.3 µM
  TGI: 27.1 µM
OVCAR-5 ovarian
  GI50: 19.7 µM
  TGI: 49.4 µM
UACC-257 melanoma
  GI50: 0.535 µM
  TGI: 18.4 µM
SF-268 CNS
  GI50: 15.3 µM
  TGI: 31.3 µM

Reference: PubChem BioAssay (NCI)
